From patent US10183936B2, “Hepatitis B core protein allosteric modulators” (priority 2014, dated 2019)

Assays:
[1] = tested on: HBV viral production in AD38 cells; experiment: Viral load production in AD38 cells by quantitative PCR of the HBV core sequence in supernatant; format: cell-based; settings: 10 μM compound, 6 days at 37° C., viral load in supernatant compared against DMSO control wells; for activity at 10 µM: Hepatitis B virus, 144 h, read-out: AD38 Viral Load (CpAM/DMSO %) at 10 μM
Procedure, shortened: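 AD38 cells seeded at 50,000/well, treated 6 days at 37° C with compound added as 10× solution in 10% DMSO. HBV core sequence in clarified supernatant quantified by TaqMan qPCR against known standards; viral load compared with DMSO control wells.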

AD38 cells = experiment: Viability of AD38 cells (Promega CellTiter-Glo) at the end of compound treatment; format: cell-based; settings: 10 μM compound, 6 days, luminescence normalized against DMSO control wells (controls being 100%)
Procedure, shortened: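 AD38 cells seeded at 50,000/well received compound from a 10× solution in 10% DMSO and were incubated 6 days at 37° C. Viability was then read by CellTiter-Glo luminescence in tetracycline-free medium with 2% FBS and 1% DMSO, normalized to DMSO control wells (100%) and reported as percent viability.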

SMILES | activity at 10 µM [1] [%] | AD38 Viability Normalized Result (CPAM/DMSO %) at 10 μM (AD38 cells) [%] | AD38 Viral Load (CpAM/DMSO %) at 10 μM [1] [%]
O=C(Nc1ccc(Cl)cn1)c1ccc2c(c1)NC(=O)c1cc(F)ccc1S2 [Compound 1338] | 70 | 118 | 
O=C(Nc1nc2ccccc2s1)c1ccc2c(c1)NC(=O)c1cc(F)ccc1S2 [Compound 1339] | 113 | 70 | 
O=C(Nc1nc2ccc(Cl)cc2s1)c1ccc2c(c1)NC(=O)c1cc(F)ccc1S2 [Compound 1340] | 64 | 116 | 
COC(=O)C(Cc1cncnc1)NC(=O)c1ccc2c(c1)NC(=O)c1cc(F)ccc1S2 (centres unmarked) [Compound 1342, Methyl 2-(2-fluoro-11-oxo-10, 11-dihydrodibenzo [b,f] [1,4]thiazepine-8-carboxamido)-3-(pyrimidin-5-yl) propanoate] |  | 95 | 113
O=C(NCCc1cnc(-c2ccccc2)nc1)c1ccc2c(c1)NC(=O)c1cc(F)ccc1S2 [Compound 1343] | 8 | 91 | 
O=C(Nc1ccncn1)c1ccc2c(c1)NC(=O)c1cc(F)ccc1S2 [Compound 1344] | 96 | 102 | 
O=C(Nc1cncc(Cl)c1)c1ccc2c(c1)NC(=O)c1cc(F)ccc1S2 [Compound 1345] | 115 | 93 | 
CC(C)(C)OC(=O)C(Cc1cncnc1)NC(=O)c1ccc2c(c1)NC(=O)c1cc(F)ccc1S2 (centres unmarked) [Compound 1346, Tert-Butyl 2-(2-fluoro-11-oxo-10, 11-dihydrodibenzo [b,f] [1,4]thiazepine-8-carboxamido)-3-(pyrimidin-5-yl) propanoate] |  | 97 | 105
O=C(NCc1cncnc1)c1ccc2c(c1)NC(=O)c1ccc(F)cc1S2 [Compound 1347] | 3 | 94 | 
O=C(NCCc1ccccn1)c1ccc2c(c1)NC(=O)c1ccc(F)cc1S2 [Compound 1348] | 0 | 107 | 
O=C(NCc1cnco1)c1ccc2c(c1)NC(=O)c1ccc(F)cc1S2 [Compound 1349] | 12 | 102 | 
O=C(Nc1ncco1)c1ccc2c(c1)NC(=O)c1cc(F)ccc1S2 [Compound 1353] | 50 | 97 | 
O=C(Nc1nc2ccccc2o1)c1ccc2c(c1)NC(=O)c1cc(F)ccc1S2 [Compound 1354] | 98 | 70 | 
O=C(NCc1cncs1)c1ccc2c(c1)NC(=O)c1ccc(F)cc1S2 [Compound 1356] | 3 | 101 | 
O=C1Nc2cc(CNCCc3ccccc3)ccc2Sc2ccccc21 [Compound 1357, 8-((phenethylamino)methyl) dibenzo [b,f] [1,4] thiazepin-11(10H)-one] | 39 | 115 | 
O=C(Nc1cccc(-c2ccccc2)c1)c1ccc2c(c1)NC(=O)c1ccc(F)cc1S2 [Compound 1358] | 15 | 72 | 
O=C(NC(CO)Cc1cncnc1)c1ccc2c(c1)NC(=O)c1cc(F)ccc1S2 (centres unmarked) [Compound 1361, 2-fluoro-N-(1-hydroxy-3-(pyrimidin-5-yl)propan-2-yl)-11-oxo-10, 11-dihydrodibenzo [b,f] [1,4] thiazepine-8-carboxamide] | 79 | 113 | 
O=C(NCCc1cncnc1)c1ccc2c(c1)NC(=O)c1ccc(F)cc1S2 [Compound 1362] | 19 | 98 | 
O=C(NCc1cccnc1)c1ccc2c(c1)NC(=O)c1cc(F)ccc1S2 [Compound 1364] | 1 | 102 | 
O=C(NCc1cccnc1)c1ccc2c(c1)NC(=O)c1ccc(F)cc1S2 [Compound 1365] | 2 | 105 | 
O=C(Nc1ccncc1)c1ccc2c(c1)NC(=O)c1ccc(F)cc1S2 [Compound 1366] | 12 | 93 | 
CC(=O)N(CCc1ccccc1)Cc1ccc2c(c1)NC(=O)c1ccccc1S2 [Compound 1367, N-((11-oxo-10, 11-dihydrodibenzo [b,f] [1,4]thiazepin-8-yl)methyl)-N-phenethyl acetamide] | 33 | 88 | 
O=C(NCCc1ccc(-c2ccccc2)cc1)c1ccc2c(c1)NC(=O)c1cc(F)ccc1S2 [Compound 1370] | 5 | 94 | 
O=C(NCCc1ccc(-c2ccccc2)cc1)c1ccc2c(c1)NC(=O)c1ccc(F)cc1S2 [Compound 1371] | 6 | 94 | 
O=C(NCc1cncnc1)c1ccc2c(c1)NC(=O)c1ccccc1[S+]2[O-] (centres unmarked) [Compound 1373] | 10 | 100 | 

SMILES | activity at 10 µM [1] [%] | AD38 Viability Normalized Result (CPAM/DMSO %) at 10 μM (AD38 cells) [%] | AD38 Viral Load (CpAM/DMSO %) at 10 μM [1] [%]
O=C(NCCc1ccccn1)c1ccc2c(c1)NC(=O)c1ccccc1[S+]2[O-] (centres unmarked) [Compound 1374] | 1 | 98 | 
O=C(Nc1cccc(-c2ccccc2)c1)c1ccc2c(c1)NC(=O)c1ccccc1[S+]2[O-] (centres unmarked) [Compound 1375] | 11 | 89 | 
O=C(NCCc1cccnc1)c1ccc2c(c1)NC(=O)c1cc(F)ccc1S2 [Compound 1376] | 3 | 63 | 
O=C(NCCc1cccnc1)c1ccc2c(c1)NC(=O)c1ccc(F)cc1S2 [Compound 1377] | 5 | 65 | 
O=C(NCc1cnco1)c1ccc2c(c1)NC(=O)c1ccccc1[S+]2[O-] (centres unmarked) [Compound 1381] | 40 | 93 | 
O=C(Nc1ccncc1)c1ccc2c(c1)NC(=O)c1ccccc1[S+]2[O-] (centres unmarked) [Compound 1382] | 47 | 117 | 
O=C(NCCc1ccccn1)c1ccc2c(c1)NC(=O)c1cccc(F)c1S2 [Compound 1383] | 1 | 87 | 
CN(C)S(=O)(=O)c1ccc(CCNC(=O)c2ccc3c(c2)NC(=O)c2cc(F)ccc2S3)cc1 [Compound 1384] | 4 | 79 | 
O=C(Nc1cccc(-c2ccccn2)c1)c1ccc2c(c1)NC(=O)c1cc(F)ccc1S2 [Compound 1385] | 26 | 51 | 
O=C(Nc1cccc(-c2cnco2)c1)c1ccc2c(c1)NC(=O)c1cc(F)ccc1S2 [Compound 1386] | 61 | 95 | 
CN(C)S(=O)(=O)c1ccc(CCNC(=O)c2ccc3c(c2)NC(=O)c2ccc(F)cc2S3)cc1 [Compound 1387] | 2 | 78 | 
O=C(NCc1cncs1)c1ccc2c(c1)NC(=O)c1ccccc1[S+]2[O-] (centres unmarked) [Compound 1388] | 5 | 71 | 
O=C(NCCc1cccnc1)c1ccc2c(c1)NC(=O)c1ccccc1[S+]2[O-] (centres unmarked) [Compound 1389] | 15 | 89 | 
O=C(NCc1cncnc1)c1ccc2c(c1)NC(=O)c1cccc(F)c1S2 [Compound 1390] | 2 | 92 | 
O=C(NCCc1cccnc1)c1ccc2c(c1)NC(=O)c1cccc(F)c1S2 [Compound 1391] | 2 | 71 | 
O=C(NCc1cccnc1)c1ccc2c(c1)NC(=O)c1cccc(F)c1S2 [Compound 1392] | 2 | 85 | 
O=C(Nc1ccncc1)c1ccc2c(c1)NC(=O)c1cccc(F)c1S2 [Compound 1393] | 41 | 87 | 
O=C(NCCc1ccccn1)c1cc2c(cc1F)Sc1ccccc1C(=O)N2 [Compound 1394] | 55 | 94 | 
O=C(NCCc1cccnc1)c1cc2c(cc1F)Sc1ccccc1C(=O)N2 [Compound 1395] | 64 | 79 | 
O=C(NCc1cccnc1)c1cc2c(cc1F)Sc1ccccc1C(=O)N2 [Compound 1396] | 63 | 95 | 
COCC(Cc1cncnc1)NC(=O)c1ccc2c(c1)NC(=O)c1cc(F)ccc1S2 (centres unmarked) [Compound 1397] | 73 | 95 | 
CN(C)S(=O)(=O)c1ccc(CCCNC(=O)c2ccc3c(c2)NC(=O)c2ccc(F)cc2S3)cc1 [Compound 1398] | 5 | 60 | 
O=C1Nc2cc(S(=O)(=O)N3CCCCC3)ccc2Sc2ccccc21 [Compound 1399] | 105 | 92 | 
O=C(Nc1cccc(-c2cccnc2)c1)c1ccc2c(c1)NC(=O)c1cc(F)ccc1S2 [Compound 1400] | 34 | 105 | 
